The values that follow come from patent US6306899A (priority 1999, dated 2001).

Each structure is given as a SMILES string. In brackets after ≈: the same amount, converted by molar mass. Entries after “also recorded” stand apart in the source; their conditions may differ.

The test system of data set [1] is HBsAg in Hep3B cells. In words: Suppression of HBsAg secretion in Hep3B cells, serum-free, 2 days. Type of data set: cell-based. Conditions: Homo sapiens, 48 h, read-out: EC50 Hep3B (50% reduction of HBsAg secretion). The text has this:
(§1) Biological testing results of Helioxanthin and
(§2) its derivatives for suppression of HBsAg
(§3) in HepA2 and Hep3B cells in serum-free condition for 2 days
(§4) The symbol, "**" denotes EC50, the concentration of tested compounds
(§5) which exerted 50% reduction of HBsAg secretion in human hepatoma cells.

The nature of data set [2]: Cytotoxicity, CEM cell growth. Format: cell-based. The following applies: human, cem cells; 3 days; read-out: Cytotoxicity (IC50) CEM cell. As for the experimental part:
(§6) To determine the cellular toxicity of the present compounds, the T-lymphoblastoic cell line (CEM) and the HEP-G2 cell line (parent cell line from which 2.2.15 cell line is produced) were used. Cells were subjected to varying concentrations of the drug(s) and cell numbers were determined 3 days post treatment by the method described by Chen, C-H and Cheng, Y-C, J. Biol. Chem., 264, 11934 (1989). Concentrations of the drug which would result in inhibition of cell growth were determined from the plot generated by representing cell numbers corresponding to the individual drug concentrations.

The test system of data set [3] is HBV RNA. As to the kind of experiment: HBV RNA level (Northern analysis). Format: cell-based, Hepatitis B virus. The following applies: in words. As for the experimental part: The biological activity of the present compounds was assessed as described by Doong, S-L, et al., Proc. Natl. Acad. Sci. U.S.A 88, 8495-8499 (1991). The human hepatoma cell line carrying HBV (cell line designated 2.2.15) provided by Dr. G. Aces was used in the study. Price, et al., Proc. Natl. Acad. Sci. U.S.A. 86, 8541 (1989). Briefly, six day-old cultures were treated with varying concentrations of the drug in the culture medium (Minimum essential medium with Earl's salts and 10% fetal bovine serum). The drug was left in the culture medium for a period of 3 days after which period the medium was aspirated and fresh medium containing the same concentration(s) of the drug was added. […] Inhibition of the viral replication was determined by the comparison of the viral DNA from drug-treated versus control cultures not treated with the drug. In addition, supernatant obtained from the polyethylene glycol precipitation of the cell culture medium (above) was measured for the presence of two HBV antigens (HBsAg and HBeAg) using enzyme immunoassay kits from Abbott Laboratories, Inc. [HBs (rDNA) EIA and HBe (rDNA)EIA], pursuant to standard practice (FIG. 3A). RNA levels were determed using Northern analysis with cellular albumin RNA being measured as a load control to standardize the quality of the HBV RNA measurement (FIG. 3B).

In data set [4] the test system is HBsAg. In words: microbe, parasite or virus in culture. Format: cell-based, Hepatitis B virus.
Data set [5] has as its system HBV. In words: microbe, parasite or virus in culture. Format: cell-based, Hepatitis B virus. Conditions: for inhibition of HBV replication / DNA level: in words.
Data set [6] has as its system 3TC resistant HBV (DM2). As to the kind of experiment: Activity against 3TC resistant HBV (DM2, L526MM550V) in transfected HepG2 cells. Type of data set: cell-based, Hepatitis B virus. The following applies: in words; for effect on 3TC resistant HBV: DM2, HepG2, 9 days.
Data set [7] relates to Yellow Fever virus. In words: microbe, parasite or virus in culture. Format: cell-based.
A short description of data set [8]: Solubility: saturated solution in PBS at room temperature. Conditions: aqueous buffer. Type of data set: physicochemical. The text has this: 3. The symbol "*" denotes the concentration of the saturated solution in
PBS at room temperature.

Data set [9] concerns HBsAg in HepA2 cells. As to the kind of experiment: Suppression of HBsAg secretion in HepA2 cells, serum-free, 2 days. Type of data set: cell-based. Conditions: Homo sapiens, HepA2, 48 h, read-out: EC50 HepA2 (50% reduction of HBsAg secretion).
Source text: as §1, §2, §3
The symbol, "*" denotes HepA2, HBV DNA stable transfected HBV dimer DNA.
as §4, §5

Data set [10] can be described thus: Cytotoxicity, HepG2 cell growth. Type of data set: cell-based. Conditions: human, hepg2 cells; 3 days; read-out: Cytotoxicity (IC50) HepG2 cell. As for the experimental part: as §6
For data set [11], the system named is WT10. As to the kind of experiment: Activity against wild-type HBV (WT10) in transfected HepG2 cells. Conditions: in words. Type of data set: cell-based, Hepatitis B virus.
For data set [12], the system named is HBV. The following applies: background; in words; cited from earlier work.

In the case of `O=C1OCc2c1cc1ccc3c(c1c2-c1ccc2c(c1)OCO2)OCO3` [Compound 145, 7,8-methylenedioxy-1-(3',4'-methylenedioxyphenyl)-2-hydroxymethylnaphthalene-3-carboxylic acid lactone], the EC50 in data set [1] stood at 25 nM; in data set [4] (Hepatitis B virus, 144 h, read-out: Anti-viral activity (ED50) HbsAg) it was 4 µM; in data set [5] (Hepatitis B virus, 144 h), 1000 nM; in data set [7] (Yellow fever virus, BHK, 144 h, read-out: Anti-viral activity (ED50) YFV, plaque reduction, BHK cells, 6 days) it was 9.5 µM; in [9], 250 nM. The CC50 at 72 h in data set [2] came out at 22 µM; in [10], 26 µM. For the same compound, the “HBV RNA level” value was “decreased the RNA and DNA level; also recorded: decrease the RNA level of HBV” in data set [3]; “decreased the RNA level” in [3] (listed as helioxanthin). Also, the HbsAg expression inhibition result in data set [4] (in words) was “inhibit HBV replication and HbsAg expression”. Besides, the “inhibition of HBV replication / DNA level” value in [5] is “selectively inhibited HBV replication; also recorded: decreased the RNA and DNA level; also recorded: the most active compound in the series tested; also recorded: inhibit HBV replication in cell culture”; in data set [5] (listed as helioxanthin), “selectively inhibited HBV replication”. In addition, the “effect on 3TC resistant HBV” value in data set [6] is listed as “excellent anti-HBV activity even in 3TC (L(-)SddC) resistant HBV”; in data set [6] (listed as helioxanthin), “stronger inhibition of viral replication of strains of HBV that have become resistant to 3TC”. Moreover, the “activity against the Yellow fever virus” value in data set [7] (in words) is given as “demonstrated activity against the Yellow fever virus”. The amount in solution in data set [8] (solubility) came to 24.7 µM (≈ 8.6 µg/mL).

On to `Nc1ccn([C@@H]2CS[C@H](CO)O2)c(=O)n1` [Compound 3TC], for which the “sensitivity of HBV DNA production of WT10 to 3TC” value in data set [11] is recorded as “sensitive”. The “sensitivity of HBV DNA production of DM2 to 3TC” value in data set [6] (DM2) is on record as “resistant”. The “effect on HBV infection” value in [12] was “recurrence of HBV after a period of treatment”.

As usually defined, the solubility is how much of the substance goes into solution per volume. A high value points to much dissolved substance.
